According to patent publication US9492471B2, “Methods of treating a disease or disorder associated with Bruton'S Tyrosine Kinase” (Celgene Avilomics Research, Inc., priority 2013, dated 2016):
Like-named read-outs stand apart in the source and are kept apart here.

Columns and labels:
Experiment in all cases: HotSpot kinase profiling
Format in all cases: biochemical
[1] = biological target: T1, SGK1 (Homo sapiens, UniProt O00141)
T1 construct: purchased Reaction Biology Corp
T1 sequence (O00141 1-431): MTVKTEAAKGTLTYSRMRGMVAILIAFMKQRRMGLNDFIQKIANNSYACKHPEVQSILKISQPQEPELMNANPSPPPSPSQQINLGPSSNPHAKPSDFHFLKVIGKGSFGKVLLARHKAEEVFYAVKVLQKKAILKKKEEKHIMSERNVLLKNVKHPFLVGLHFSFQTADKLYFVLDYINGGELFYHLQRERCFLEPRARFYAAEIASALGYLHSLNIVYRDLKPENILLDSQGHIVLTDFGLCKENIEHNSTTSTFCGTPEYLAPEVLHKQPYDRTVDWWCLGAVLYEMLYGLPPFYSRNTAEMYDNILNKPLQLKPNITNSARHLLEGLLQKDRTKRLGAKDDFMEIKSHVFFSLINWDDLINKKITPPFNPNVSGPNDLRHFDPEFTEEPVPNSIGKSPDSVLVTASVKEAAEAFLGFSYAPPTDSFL
In short: (§1)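 Activity is measured by radiolabel transfer captured on P81 filters after a 2 h room-temperature reaction of kinase, substrate and cofactors. Values are percent inhibition against DMSO.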

[2] = biological target: T2, JNK3 (Homo sapiens, UniProt P53779)
T2 construct: purchased Reaction Biology Corp
In short: as §1

[3] = biological target: T3, ARK5/NUAK1 (Homo sapiens, UniProt O60285)
T3 construct: purchased Reaction Biology Corp
T3 sequence (O60285 1-661): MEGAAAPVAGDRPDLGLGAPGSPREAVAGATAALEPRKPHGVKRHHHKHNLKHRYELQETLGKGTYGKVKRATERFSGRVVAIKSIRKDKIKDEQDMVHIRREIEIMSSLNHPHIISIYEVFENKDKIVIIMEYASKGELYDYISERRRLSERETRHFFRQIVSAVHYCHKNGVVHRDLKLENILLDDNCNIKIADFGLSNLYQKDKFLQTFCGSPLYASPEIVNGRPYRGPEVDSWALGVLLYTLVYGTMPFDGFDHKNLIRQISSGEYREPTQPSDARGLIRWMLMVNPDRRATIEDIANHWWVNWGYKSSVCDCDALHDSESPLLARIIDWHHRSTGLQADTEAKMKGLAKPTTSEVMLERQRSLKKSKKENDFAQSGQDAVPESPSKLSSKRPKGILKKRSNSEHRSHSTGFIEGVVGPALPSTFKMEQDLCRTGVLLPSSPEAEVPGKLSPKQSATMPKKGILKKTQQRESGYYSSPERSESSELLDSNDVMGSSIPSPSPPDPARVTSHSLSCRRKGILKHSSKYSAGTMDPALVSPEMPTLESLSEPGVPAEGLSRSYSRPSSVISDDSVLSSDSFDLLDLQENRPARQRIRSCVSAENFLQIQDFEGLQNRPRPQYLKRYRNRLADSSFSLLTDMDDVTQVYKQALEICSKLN
In short: as §1

[4] = biological target: T4, ULK1 (Homo sapiens, UniProt O75385)
T4 construct: purchased Reaction Biology Corp
T4 sequence (O75385 1-1050): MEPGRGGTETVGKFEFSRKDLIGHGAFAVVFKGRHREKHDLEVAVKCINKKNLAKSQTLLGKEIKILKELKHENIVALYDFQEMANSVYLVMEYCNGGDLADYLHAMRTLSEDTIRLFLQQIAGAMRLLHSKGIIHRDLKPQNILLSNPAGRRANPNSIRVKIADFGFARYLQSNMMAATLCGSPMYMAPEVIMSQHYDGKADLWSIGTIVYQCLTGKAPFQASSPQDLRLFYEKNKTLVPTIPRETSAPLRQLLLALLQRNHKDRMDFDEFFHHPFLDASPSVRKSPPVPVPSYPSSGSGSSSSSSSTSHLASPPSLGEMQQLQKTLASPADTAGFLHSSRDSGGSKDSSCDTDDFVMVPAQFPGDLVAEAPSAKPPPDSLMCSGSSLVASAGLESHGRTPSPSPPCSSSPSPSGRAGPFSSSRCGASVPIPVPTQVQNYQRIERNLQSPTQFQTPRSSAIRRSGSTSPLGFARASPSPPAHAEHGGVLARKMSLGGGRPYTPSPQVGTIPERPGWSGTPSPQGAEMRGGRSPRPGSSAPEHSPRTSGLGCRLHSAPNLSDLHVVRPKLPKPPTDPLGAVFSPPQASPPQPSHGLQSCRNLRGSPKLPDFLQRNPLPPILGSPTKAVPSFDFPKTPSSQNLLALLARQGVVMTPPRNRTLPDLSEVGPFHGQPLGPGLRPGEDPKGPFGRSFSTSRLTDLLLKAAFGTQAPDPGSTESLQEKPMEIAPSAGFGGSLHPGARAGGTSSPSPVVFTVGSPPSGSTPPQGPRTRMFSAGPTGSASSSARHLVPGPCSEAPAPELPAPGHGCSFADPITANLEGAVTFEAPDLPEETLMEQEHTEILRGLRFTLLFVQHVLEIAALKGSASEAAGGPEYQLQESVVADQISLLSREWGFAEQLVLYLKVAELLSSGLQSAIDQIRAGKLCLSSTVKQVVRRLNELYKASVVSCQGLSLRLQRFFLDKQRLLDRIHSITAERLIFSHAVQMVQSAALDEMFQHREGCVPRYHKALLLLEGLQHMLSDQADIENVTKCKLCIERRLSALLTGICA
In short: as §1

[5] = read-out: % Enzyme Activity (relative to DMSO controls) Run 1
[6] = read-out: % Enzyme Activity (relative to DMSO controls) Run 2

T2 sequence (P53779 whole entry): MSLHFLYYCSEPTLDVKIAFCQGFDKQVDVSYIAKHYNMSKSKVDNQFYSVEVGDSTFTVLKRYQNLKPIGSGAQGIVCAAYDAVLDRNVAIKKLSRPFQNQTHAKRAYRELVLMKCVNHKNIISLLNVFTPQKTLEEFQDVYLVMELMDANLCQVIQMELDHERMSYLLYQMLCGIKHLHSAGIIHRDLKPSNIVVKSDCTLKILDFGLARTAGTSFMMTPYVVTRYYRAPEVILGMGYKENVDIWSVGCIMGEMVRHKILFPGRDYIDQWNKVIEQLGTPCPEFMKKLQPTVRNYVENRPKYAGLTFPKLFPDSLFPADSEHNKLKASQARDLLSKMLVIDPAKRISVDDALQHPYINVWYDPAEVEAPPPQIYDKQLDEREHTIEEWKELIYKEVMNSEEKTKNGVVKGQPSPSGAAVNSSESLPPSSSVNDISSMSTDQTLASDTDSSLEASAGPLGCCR

C=CC(=O)Nc1cccc(Nc2nc(Nc3ccc(OCCOC)c(F)c3)ncc2F)c1 [Compound 2]
inhibition at 3 µM [1]: 0.37%
remaining activity at 3 µM [1, 5]: 99.7%
remaining activity at 3 µM [1, 6]: 99.5%
inhibition at 3 µM [2]: -12.8%
remaining activity at 3 µM [2, 5]: 110%
remaining activity at 3 µM [2, 6]: 116%
inhibition at 3 µM [3]: 86.7%
remaining activity at 3 µM [3, 5]: 13.3%
remaining activity at 3 µM [3, 6]: 13.3%
inhibition at 3 µM [4]: -0.59%
remaining activity at 3 µM [4, 5]: 100%
remaining activity at 3 µM [4, 6]: 101%
